Assay results: ChEMBL document CHEMBL1130513, “New hepatoprotective saponins, bupleurosides III, VI, IX, and XIII, from Chinese Bupleuri Radix: Structure-requirements for the cytoprotective activity in primary cultured rat hepatocytes” (1997)

How the values were obtained:
Assay type in all cases: functional
[1] = species on record: Rattus norvegicus; experiment: In vitro inhibitory effect on D-Galactosamine induced cytotoxicity in primary cultured rat hepatocytes at 10 ug/mL; conditions: Hepatocyte
[2] = species on record: Rattus norvegicus; experiment: In vitro inhibitory effect on D-Galactosamine induced cytotoxicity in primary cultured rat hepatocytes at 30 ug/mL; conditions: Hepatocyte
[3] = test system: Mus musculus; experiment: Inhibitory effect on D-GalN/LPS (injected i.p. dose of 350 mg/kg and 10 ug/kg) induced hepatic injury in mice at 20 mg/kg, ip
[4] = species on record: Rattus norvegicus; experiment: In vitro inhibitory effect on D-Galactosamine induced cytotoxicity in primary cultured rat hepatocytes at 0.3 ug/mL; conditions: Hepatocyte
[5] = species on record: Rattus norvegicus; experiment: In vitro inhibitory effect on D-Galactosamine induced cytotoxicity in primary cultured rat hepatocytes at 1 ug/mL; conditions: Hepatocyte
[6] = species on record: Rattus norvegicus; experiment: In vitro inhibitory effect on D-Galactosamine induced cytotoxicity in primary cultured rat hepatocytes at 3 ug/mL; conditions: Hepatocyte
[7] = test system: Mus musculus; experiment: Inhibitory effect on D-GalN/LPS (injected i.p. dose of 350 mg/kg and 10 ug/kg) induced hepatic injury in mice at 10 mg/kg, ip

SMILES | inhibition at 10 µg/mL [1] [%] | inhibition at 30 µg/mL [2] [%] | s-GOT level [3] [Karmen units] | s-GPT level [3] [Karmen units] | inhibition at 0.3 µg/mL [4] [%] | inhibition at 1 µg/mL [5] [%] | inhibition at 3 µg/mL [6] [%] | s-GOT level [7] [Karmen units] | s-GPT level [7] [Karmen units]
C[C@H]1O[C@@H](O[C@H]2CC[C@@]3(C)C(CC[C@]4(C)C3C(=O)C=C3C5CC(C)(C)CC[C@]5(CO)[C@@H](O)C[C@]34C)[C@]2(C)CO)[C@H](O)[C@@H](O[C@@H]2O[C@H](CO)[C@@H](O)[C@H](O)[C@H]2O)[C@H]1O (stereo partly specified) | 72.8 | 90.9 | 1404 | 1530 | 5.5 | 16.9 | 44.5 | 7211 | 7887
C[C@]12CCC(=O)C=C1CCC1[C@@H]2[C@@H](O)C[C@@]2(C)[C@H]1CC[C@]2(O)C(=O)CO (single isomer, unassigned) [HYDROCORTISONE] |  |  | 331 | 202 |  |  |  |  | 
